Experimental data reported in patent publication US10377698B2, “Diphenethylamine derivatives which are inter alia useful as analgesics and method for their production” (UNIVERSITY OF INNSBRUCK, priority 2015, dated 2019).
Where a name gives a salt, the structure may show the parent alone. Read-outs that look alike come from different tables or passages of the source.

Assays:
human DOR = biological target: T1, human DOR (Homo sapiens, UniProt P41143); assay: Opioid receptor binding assay, competition binding, CHO cell membranes (DOR); conditions: membranes from CHO cells stably expressing human DOR; read-out: Affinity Ki DOR
T1 construct: expressed in transfected cells; host or cells: CHO cells (membranes)

KOR [1] = biological target: T2, KOR (Homo sapiens, UniProt P41145); assay: KOR-mediated β-arrestin2 recruitment, DiscoveRx PathHunter assay, U2OS-hMOR-β-arrestin2 cells; type: cell-based; conditions: for Emax: read-out: β-arrestin2 recruitment assay Emax
[2] = design: species or system mice; conditions: mouse, in vivo, sc
KOR [3] = biological target: T2, KOR; assay: biochemical; type: biochemical; design: expressed in transfected cells; host or cells: CHO cells (membranes); conditions: for Emax: read-out: [35S]GTPγS binding KOR Emax
human MOR = biological target: T3, human MOR (Homo sapiens, UniProt P35372); assay: Opioid receptor binding assay, competition binding, CHO cell membranes (MOR); conditions: membranes from CHO cells stably expressing human MOR; read-out: Affinity Ki MOR
T3 construct: expressed in transfected cells; host or cells: CHO cells (membranes)

KOR [4] = biological target: T2, KOR; assay: biochemical; type: binding; design: expressed in transfected cells; host or cells: CHO cells (membranes)
[5] = read-out: [35S]GTPγS binding KOR EC50

T2 sequence (P41145 whole entry): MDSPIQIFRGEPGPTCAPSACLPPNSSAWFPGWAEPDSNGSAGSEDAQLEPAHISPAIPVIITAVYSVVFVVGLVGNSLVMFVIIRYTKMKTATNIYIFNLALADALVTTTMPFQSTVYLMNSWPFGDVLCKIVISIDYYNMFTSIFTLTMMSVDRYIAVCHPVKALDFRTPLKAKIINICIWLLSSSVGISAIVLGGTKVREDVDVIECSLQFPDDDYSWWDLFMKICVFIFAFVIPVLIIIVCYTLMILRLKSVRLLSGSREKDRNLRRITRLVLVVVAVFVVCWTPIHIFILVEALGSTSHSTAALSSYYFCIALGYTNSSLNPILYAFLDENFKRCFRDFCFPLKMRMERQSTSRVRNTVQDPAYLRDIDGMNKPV
T3 sequence (P35372 whole entry): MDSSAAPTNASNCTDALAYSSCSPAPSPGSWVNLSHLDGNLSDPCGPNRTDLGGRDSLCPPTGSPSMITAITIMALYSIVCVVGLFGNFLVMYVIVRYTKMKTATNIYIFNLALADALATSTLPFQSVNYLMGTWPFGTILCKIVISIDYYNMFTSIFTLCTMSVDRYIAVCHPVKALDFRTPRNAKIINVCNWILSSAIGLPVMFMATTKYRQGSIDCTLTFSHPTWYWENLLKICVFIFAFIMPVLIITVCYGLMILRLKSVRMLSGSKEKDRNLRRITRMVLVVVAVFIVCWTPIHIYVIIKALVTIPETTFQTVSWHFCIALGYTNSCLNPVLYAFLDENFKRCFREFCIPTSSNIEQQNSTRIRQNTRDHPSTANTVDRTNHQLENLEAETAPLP
T1 sequence (P41143 whole entry): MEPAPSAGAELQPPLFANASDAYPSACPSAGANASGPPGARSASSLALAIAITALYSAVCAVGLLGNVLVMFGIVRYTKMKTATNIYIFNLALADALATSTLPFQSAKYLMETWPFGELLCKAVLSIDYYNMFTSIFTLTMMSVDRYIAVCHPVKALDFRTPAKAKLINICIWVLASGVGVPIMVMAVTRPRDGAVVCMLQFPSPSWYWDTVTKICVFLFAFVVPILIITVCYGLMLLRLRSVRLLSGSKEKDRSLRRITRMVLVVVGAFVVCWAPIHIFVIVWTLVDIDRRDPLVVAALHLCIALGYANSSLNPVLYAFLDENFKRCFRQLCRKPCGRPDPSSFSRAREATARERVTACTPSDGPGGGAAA

Oc1cccc(CCN(CCc2cccc(O)c2)CC2CC2)c1
melting point: 106 to 107 °C

C=CCN(CCc1cccc(O)c1)CCc1cccc(O)c1
melting point: 104 to 106 °C

CC(C)CCN(CCc1cccc(O)c1)CCc1cccc(O)c1
melting point: 71 to 72 °C

CCCCN(CCc1cccc(O)c1)CCc1cccc(O)c1
melting point: 62 to 64 °C

CCCCCN(CCc1cccc(O)c1)CCc1cccc(O)c1
melting point: 70 to 72 °C

CCCCCCN(CCc1cccc(O)c1)CCc1cccc(O)c1
melting point: 75 to 76 °C

Oc1ccc(CCN(CCc2cccc(O)c2)CC2CCCCC2)cc1
melting point: 155 to 157 °C

C=CCN(CCc1ccc(O)cc1)CCc1cccc(O)c1
melting point: 103 to 105 °C

CCCCN(CCc1ccc(O)cc1)CCc1cccc(O)c1
melting point: 65 to 68 °C

Oc1ccc(CCN(CCc2cccc(O)c2)CC2CC2)cc1
melting point: 104 to 105 °C

Oc1cccc(CCN(CCc2ccccc2)Cc2ccccc2)c1F
melting point: 126 to 128 °C

Oc1ccc(CCN(CCc2ccccc2)CC2CCCC2)cc1
melting point: 150 to 153 °C

CC(C)CCN(CCc1ccccc1)CCc1cccc(O)c1
melting point: 149 to 150 °C

Oc1cccc(CCN(CCc2ccccc2)C2CCC2)c1
melting point: 100 to 101 °C

Nc1cccc(CCN(CCc2ccccc2)CC2CCC2)c1 (as salt: hydrochloride)
melting point: 68 to 70 °C

Oc1cccc(CCN(CCc2ccccc2)CC2CCCC2)c1 [Compound 2, 3-[2-[(Cyclopentylmethyl)(phenethyl)amino]ethyl]phenol]
Ki (human DOR): 5210 nM
EC50 (KOR [1]): 1340 nM
Emax (KOR [1]): 83%
ED50 writhing test [2]: 0.54 mg/kg, s.c.
Relative analgesic potency to HS665 [2]: 3.5
Relative analgesic potency to HS666 [2]: 6.0
Relative analgesic potency to U50,488 [2]: 2.9
melting point: 154 to 156 °C
EC50 (KOR [3]): 4.19 nM
Emax (KOR [3]): 72.9%

Oc1cccc(CCN(CCc2ccccc2)CC2CCCCC2)c1 [Compound 3, 3-[2-[(Cyclohexylmethyl)(phenethyl)amino]ethyl]phenol]
Ki (human MOR): 436 nM
Ki (human DOR): 2140 nM
Bias factor (KOR [1]): 2909
EC50 (KOR [1]): 1360 nM
Emax (KOR [1]): 72.2%
ED50 writhing test [2]: 0.97 mg/kg, s.c.
Relative analgesic potency to HS665 [2]: 2.0
Relative analgesic potency to HS666 [2]: 3.3
Relative analgesic potency to U50,488 [2]: 1.6
melting point: 150 to 151 °C
Ki (KOR [4]): 0.088 nM
EC50 (KOR [3]; [5]): 0.23 nM
Emax (KOR [3]): 61.9%

Oc1cccc(CCN(CCc2ccccc2)Cc2ccccc2)c1 [Compound 4, 3-[2-[Benzyl(phenethyl)amino]ethyl]phenol]
Ki (human MOR): 463 nM
Ki (human DOR): 1860 nM
Bias factor (KOR [1]): 1172
EC50 (KOR [1]; DiscoveRx PathHunter assay, U2OS-hMOR cells, read-out: β-arrestin2 recruitment assay EC50): 4450 nM
Emax (KOR [1]): 37.3%
Relative analgesic potency to HS665 [2]: 1.6
Relative analgesic potency to HS666 [2]: 2.7
Relative analgesic potency to U50,488 [2]: 1.3
melting point: 177 to 178 °C
Ki (KOR [4]; read-out: Affinity Ki KOR): 0.71 nM
EC50 (KOR [3]; [5]): 4.65 nM
Emax (KOR [3]): 79.5%

Oc1cccc(CCN(CCc2cccc(O)c2)CC2CCC2)c1 [Compound 12, 3,3′-[2,2′-(Cyclobutylmethylazanediyl)bis(ethane-2,1-diyl)]diphenol]
Ki (human MOR): 230 nM
Ki (human DOR): 4180 nM
ED50 writhing test [2]: 1.59 mg/kg, s.c.
Relative analgesic potency to HS665 [2]: 1.2
Relative analgesic potency to HS666 [2]: 2.0
Relative analgesic potency to U50,488 [2]: 1.0
Ki (KOR [4]): 0.34 nM
EC50 (KOR [3]): 5.51 nM
Emax (KOR [3]): 71.4%

COc1cccc(CCN(CCc2ccc(O)cc2)CC2CCCC2)c1 [Compound 27, 4-[2-[(Cyclopentylmethyl)(3-methoxyphenethyl)amino]ethyl]phenol]
Ki (human MOR): 158 nM
Ki (human DOR): 6240 nM
melting point: 74 to 77 °C
Ki (KOR [4]): 0.17 nM
EC50 (KOR [3]): 22.8 nM
Emax (KOR [3]): 73.6%

Oc1cccc(CCN(CCc2cccc(O)c2)CC2CCCCC2)c1 [Compound 29, 3,3′-[2,2′-(Cyclohexylmethylazanediyl)bis(ethane-2,1-diyl)]diphenol]
Ki (human MOR): 219 nM
melting point: 157 to 158 °C
Ki (KOR [4]): 0.18 nM
EC50 (KOR [3]): 10.6 nM
Emax (KOR [3]): 92.2%

Oc1cccc(CCN(CCc2cccc(O)c2)CC2CCCC2)c1 [Compound 39, 3,3′-[2,2′-(Cyclopentylmethylazanediyl)bis(ethane-2,1-diyl)]diphenol]
Ki (human MOR): 702 nM
melting point: 113 °C
Ki (KOR [4]): 0.38 nM
EC50 (KOR [3]): 14.2 nM
Emax (KOR [3]): 83.6%

Oc1cccc(CCN(CCc2ccccc2)CC2CCC2)c1F [Compound 49, 3-[2-[(Cyclobutylmethyl)(phenethyl)amino]ethyl]-2-fluorophenol]
Ki (human MOR): 414 nM
Bias factor (KOR [1]): 82
EC50 (KOR [1]): 859 nM
Emax (KOR [1]): 57.5%
Ki (KOR [4]): 0.022 nM
EC50 (KOR [3]; [5]): 6.9 nM
Emax (KOR [3]): 66.1%

Oc1cccc(CCN(CCc2ccccc2)CC2CCCCC2)c1F [Compound 51, 3-[2-[(Cyclohexylmethyl)(phenethyl)amino]ethyl]-2-fluorophenol]
Ki (human MOR): 543 nM
Bias factor (KOR [1]): 1514
EC50 (KOR [1]): 4180 nM
Emax (KOR [1]): 48.4%
ED50 writhing test [2]: 1.20 mg/kg, s.c.
Relative analgesic potency to HS665 [2]: 1.6
Relative analgesic potency to HS666 [2]: 2.7
Relative analgesic potency to U50,488 [2]: 1.3
melting point: 129 to 130 °C
Ki (KOR [4]): 0.046 nM
EC50 (KOR [3]; [5]): 2.77 nM
Emax (KOR [3]): 84.6%

Oc1cccc(CCN(CCc2cccc(O)c2F)CC2CCC2)c1 [Compound 53, 3-[2-[(Cyclobutylmethyl)(3-hydroxyphenethyl)amino]ethyl]-2-fluorophenol]
Ki (human MOR): 548 nM
Ki (human DOR): 4750 nM
Bias factor (KOR [1]): 263
EC50 (KOR [1]): 529 nM
Emax (KOR [1]): 41.2%
Ki (KOR [4]; read-out: Affinity Ki KOR): 0.12 nM
EC50 (KOR [3]; [5]): 1.49 nM
Emax (KOR [3]): 53.1%

Oc1cccc(CCN(CCc2ccccc2)CC2CCC2)c1 [HS665, reference compound]
Ki (human DOR): > 10000 nM
ED50 writhing test [2]: 1.91 mg/kg, s.c.

Cl.Oc1cccc(CCN(CCc2ccccc2)CC2CC2)c1 [HS666, 3-[2-[(Cyclopropylmethyl)(phenethyl)amino]ethyl]phenol Hydrochloride, reference compound]
Ki (human MOR): 826 nM
Ki (human DOR): > 10000 nM
Bias factor (KOR [1]): 18
EC50 (KOR [1]): 502 nM
Emax (KOR [1]): 25%
ED50 writhing test [2]: 3.23 mg/kg, s.c.
Relative analgesic potency to HS665 [2]: 0.6
Relative analgesic potency to HS666 [2]: 1.0
Relative analgesic potency to U50,488 [2]: 0.5
Ki (KOR [4]; read-out: Affinity Ki KOR): 5.9 nM
EC50 (KOR [3]; [5]): 35 nM
Emax (KOR [3]): 53.4%
